Where two headings read alike, the source gives them in different places.
Assays:
[1] = Plasma thiol concentrations after intraintestinal injection in anaesthetized rats
Protocol: (§1) Therefore, experiments were performed to investigate biological stability and bioavailability of the compounds of formula I, and to compare these with N-acetyl-L-cysteine.
The thiols were injected into the intestines of anaesthetized rats. At various times after the injections blood samples were withdrawn, and plasma thiols analyzed. […] The values given represent mean±SEM, unless otherwise stated.

[2] = Protocol: as §1
[3] = Plasma concentrations and urinary excretion in healthy human volunteers after oral intake
Protocol: as §1
Plasma concentrations and urinary excretion in helthy human volunteers were measured after oral intake of N-acetyl-L-cysteine, and N-isobutyryl-L-cysteine, 1.23 mmole of each.

| biological stability (in words) [2] | concentration ([1]; rat, in vivo) | bioavailability / plasma levels after oral intake (in words) ([3]; human, in vivo, po) | hydrolysis in homogenates [2] | SMILES | plasma level after intraintestinal injection (in words) ([1]; rat, in vivo) | concentration ([1]; read-out: concentrations of the thiols in plasma, after injection into intestines of anaesthetized rats, only one experiment performed) | Cmax ([3]; human, in vivo, po, 1.23 mmol) | bioavailability / plasma levels after oral intake (in words) ([3]; oral intake) |
| --- | --- | --- | --- | --- | --- | --- | --- | --- |
| much more biologically stable | 13 ± 2.9 µM | reached high concentrations in plasma | – | CC(C)C(=O)N[C@@H](CS)C(=O)O [N-isobutyryl-L-cysteine] | reached considerable concentrations | – | – | – |
| much more biologically stable | 11.8 µM | – | not hydrolyzed to any measureable extent | CC(C)(C)C(=O)N[C@@H](CS)C(=O)O [N-pivaloyl-L-cysteine] | – | – | – | – |

| SMILES | biological stability (in words) [2] | concentration ([1]; rat, in vivo) | bioavailability / plasma levels after oral intake (in words) ([3]; human, in vivo, po) | hydrolysis in homogenates [2] | plasma level after intraintestinal injection (in words) ([1]; rat, in vivo) | concentration ([1]; read-out: concentrations of the thiols in plasma, after injection into intestines of anaesthetized rats, only one experiment performed) | Cmax ([3]; human, in vivo, po, 1.23 mmol) | bioavailability / plasma levels after oral intake (in words) ([3]; oral intake) |
| --- | --- | --- | --- | --- | --- | --- | --- | --- |
| CC(=O)N[C@@H](CS)C(=O)O [N-acetyl-L-cysteine, reference compound] | biologically unstable | – | – | – | barely detectable in plasma | 0.7 µM | < 1 µM | poor bioavailability |

— patent US5350768A, “Derivatives of cysteine” (priority 1987, dated 1994)
